Results on 7 molecules are retold here after patent publication US6855711B1, “Pharmaceutical compositions comprising iron chelators for the treatment of neurodegenerative disorders and some novel iron chelators” (Yeda Research and Development Co. Ltd., priority 1999, dated 2005).

“Also recorded” adds a separate entry of the source. Read-outs that look alike come from different tables or passages of the source. Marks after values point to notes of the source that are not given here.

For data set [1], the system named is iron-induced lipid peroxidation (MDA formation) in rat brain cortex homogenates. Kind of data set: Prevention of iron-induced lipid peroxidation (MDA formation, TBA method) in rat brain cortex homogenates. The data set is classed as biochemical. The settings on record: 10^−3M chelator; for reduction of iron-induced MDA formation: 10^−4M ferric chloride. As to the method:
The ability of the compounds of the invention to prevent lipid peroxidation in brain tissue was first screened in rat brain homogenates in vitro by a method involving the detection of free radicals performed by […] and measurement of the MDA formation, as described by D. Ben-Shachar et al. (1991) J. Neurochem. 57: 1609-14. In this method, brain cortex homogenates are prepared in sucrose and incubated alone to determine basal lipid peroxidation, or incubated after the addition of Fe2(SO4)3 or FeCl3 for Fe-induction of maximum free-radical formation, and in the presence of the iron chelators to be tested. After addition of TBA, lipid peroxidation is assayed by measurement of MDA formation.
Brain cortex homogenates (10% wt/vol) from male Wistar rats were prepared in 0.3M sucrose and incubated in air as described (Rehncrona et al., (1980) J. Neurochem. 34: 1630-38). Aliquots (0.1 ml) of homogenate were incubated alone at 30° C. for 90 min to determine basal lipid peroxidation, or incubated after the addition of 10^−4 Fe2(SO4), or FeCl3 and in the presence of 10^−3M iron chelator of formula I or II. For the assay, to 0.3 ml of the homogenate there were added 0.2 ml of 8% SDS, 1.5 ml of 20% acetic acid pH 3.0-3.5, 1.5 ml of 0.8% thiobarbituric acid (TBA) and 0.5 ml of H2O2×2, the mixture was incubated at 95° C. for 60 min, cooled and lipid peroxidation was assayed by measurement of malondialdehyde formation at 532 nm, as described (Dexter et al. (1989) J. Neurobiochem. 52: 381-89). Standard curve: 1,1,3,3-tetraethoxypropane 0.1-25 nmol in 0.3 ml.
In another experiment, the Compounds 3, 7, 9-17 and 26 were examined for their ability to inhibit lipid peroxidation in vitro by measuring their capability to inhibit MDA formation in the presence of 10^−4M FeCl3 in rat brain homogenates. Ferric chloride(10^−4M)-induced lipid peroxidation, as measured by MDA formation in rat cerebral cortex homogenates, was inhibited to a different degree by 10^−3M of the various chelators.

In data set [2] the test system is 6-OHDA-induced lesion of nigrostriatal dopamine neurons. Description: Prevention of 6-OHDA-induced toxicity in rats (striatal biogenic amines and metabolites by HPLC). Type of data set: in vivo, rat. As to the method:
Male Sprague-Dawley rats, weighing 230-270 g, were housed in a controlled-temperature room with a standardized dark-light schedule (12/12 h) for 4 weeks. Rats were anesthetized with a mixture of 15 mg/kg of pentobarbital and 60 mg/kg of chloral hydrate. 6-OHDA (250 μg in 5 μl of 0.9% NaCl containing 0.2% ascorbic acid), the chelator 3 or 15 (200 μg in 5 μl), a combination of both (the chelator 3 or 15 15 min before 6-OHDA), or saline (5 μl) (control) was injected into the right cerebral ventricle using stereotactic techniques. The coordinates with bregma as the reference were D 0.8 mm, L 1.3 mm, and V 3.6 mm according to the atlas of Paxinos and Watson. Pargyline (50 mg/kg i.p.) and desmethylimipramine-HCl (25 mg/kg i.p.) were administered to all the rats 60 min before intracerebroventricular injection. Pargyline inhibits monoamine oxidase and thereby enhances the toxicity of 6-OHDA, and desmethylimipramine provides protection for central noradrenergic neurons from the toxin. All the animals received a daily injection of isotonic glucose (4 ml/day i.p.) until they regained their original body weight. Behavioral tests were performed 4 weeks after operation, commencing between 8 and 10 a.m. The rats were killed after the behavioral studies. Desferal was obtained from Ciba Geigy, and other chemicals were from Sigma (St. Louis, Mo., U.S.A.).
Norepinephrine (NE), DA, and metabolite levels were measured as follows: four weeks postoperatively, rats were killed by decapitation, and the brains were rapidly removed. The striata were dissected on an ice-chilled glass plate and quickly frozen in liquid nitrogen. The endogenous levels of NE, DA, 3,4-dihydroxyphenylacetic acid (DOPAC), and homovanillic acid (HVA) were determined by HPLC with electrochemical detection (Ben-Shachar et al. (1991) Eur. J. Pharmacol. 202:177-83). All data are expressed as mean±SEM values. Statistical analysis was carried out by analysis of variance with multiple comparisons followed by Student's t test.
Striatal dopamine and its metabolites DOPAC and HVA concentrations, which were determined by HPLC, served as a criteria for the extent of the damage caused by 6-OHDA in the presence or absence of the iron chelators. […] Dopamine turnover was normal in rats pretreated with iron chelators (Table 1).
Based on confirmation properties of the two iron chelators 3 and 15, it was considered that Compound 15 has a better chance to cross the blood-brain-barrier (BBB) and the studies were continued with Compound 15. In order to decrease to minimum the possibility of a direct interaction between the chelator and the toxin as a cause for the protection, and to try to find a smaller effective dose of the chelator, 1 μg Compound 15 was injected intraventricularly prior to the injection of 250 μg 6-OHDA.
The main goal at this stage of research was to find out whether Compound 15 given peripherally would be able to prevent 6-OHDA-induced toxicity. In other words the question was whether the chelator will stay stable in the periphery, cross the BBB and […]. Control group received phosphate buffer pH−6.4 0.1M. On the 11th day, the rats of both groups were injected intraventricularly with 250 μg 6-OHDA.

The subject of data set [3] is 6-OHDA-induced dopaminergic neuron degeneration. The settings on record: cited from earlier work.
Setting [4] is: Table 1: 200 μg chelator intraventricular prior to 250 μg 6-OHDA (Comb.), 6-OHDA = 250 μg 6-OHDA alone.
Where [5] appears, read: Table 1: 200 μg chelator intraventricular prior to 250 μg 6-OHDA (Comb.), 6-OHDA = 250 μg 6-OHDA alone, mean±SEM.
The mark [6] stands for this setting: Table 2: 1 μg chelator 15 intraventricular prior to 250 μg 6-OHDA (Comb.), 6-OHDA = 250 μg 6-OHDA alone.
Where [7] appears, read: Table 3: chelator 15 5 mg/Kg/day i.p. for 10 days + 250 μg 6-OHDA intraventricular (Comb.), 6-OHDA = 250 μg 6-OHDA without chelator.
Setting [8] is: intracerebroventricular 6-OHDA (250 μg).

For `Cl.Cl.Cl.Cl.Oc1ccc(CN2CCN(Cc3ccc(O)c4ncccc34)CC2)c2cccnc12`, the melting point was 227 to 228 °C.

In the case of `Cl.Cl.Cl.Oc1ccc(CN2CCNCC2)c2cccnc12`, the melting point was 232 to 234 °C (dec.).

With `OCCN1CCN(Cc2ccc(O)c3ncccc23)CC1` [Compound 15, 5-(4-(2-hydroxyethyl)piperazin-1-ylmethyl)-8-hydroxyquinoline], the “inhibition of MDA formation (lipid peroxidation), in words” value in data set [1] (10^−4M FeCl3, rat cerebral cortex homogenates) is listed as “most effective”. For the same molecule, the “reduction of iron-induced MDA formation” value in data set [1] is about 50%. Moreover, the “prevention of 6-OHDA-induced lesion, in words” value in data set [2] (1 μg intraventricular prior to 250 μg 6-OHDA) is on record as “effective in preventing 6-OHDA-induced lesion”. Besides, the “prevention of 6-OHDA-induced reduction in striatal dopamine and DOPAC concentrations, in words” value in data set [2] (200 μg chelator intraventricular prior to 250 μg 6-OHDA) was “efficiently prevented”. In addition, the “protection against 6-OHDA toxicity, in words” value in data set [2] (5 mg/Kg i.p. for 10 days before intraventricular 250 μg 6-OHDA) was “Partial but significant protection; also recorded: partially protected”. Further, the “(DOPAC + HAV)/DA (dopamine turnover)” value in data set [2] (setting [4]) is 0.15. In addition, in data set [2] (setting [5]), the “5-HIAA in rat striatum” value is listed as 4.48 ± 0.38 pmol/mg tissue, the “5-HT in rat striatum” value is 4.24 ± 0.43 pmol/mg tissue, the “DA in rat striatum” value was determined as 33.8 ± 4.3 pmol/mg tissue and the “DOPAC in rat striatum” value stood at 2.45 ± 0.25 pmol/mg tissue. In addition, in data set [2] (setting [5]), the “HVA in rat striatum” value is reported as 2.67 ± 0.33 pmol/mg tissue and the “NE in rat striatum” value is reported as 5.01 ± 0.1 pmol/mg tissue. Besides, in data set [2] (setting [6]), the “5-HIAA in rat striatum” value was determined as 4.98 ± 0.46 pmol/mg tissue, the “5-HT in rat striatum” value is on record as 4.84 ± 0.45 pmol/mg tissue, the “(DOPAC + HAV)/DA (dopamine turnover)” value is on record as 0.08 and the “DA in rat striatum” value is reported as 62.9 ± 3.13 pmol/mg tissue. Further, in data set [2] (setting [6]), the “DOPAC in rat striatum” value is recorded as 2.49 ± 0.13 pmol/mg tissue, the “HVA in rat striatum” value is given as 2.77 ± 0.25 pmol/mg tissue and the “NE in rat striatum” value was found to be 1.3 ± 0.12 pmol/mg tissue. Also, in data set [2] (setting [7]), the “5-HIAA in rat striatum” value is 1.59 ± 0.16 pmol/mg tissue, the “5-HT in rat striatum” value was 2.6 ± 0.31 pmol/mg tissue, the “(DOPAC + HAV)/DA (dopamine turnover)” value was 0.15 and the “DA in rat striatum” value is reported as 24.4 ± 4.4^ab pmol/mg tissue. Also, in data set [2] (setting [7]), the “DOPAC in rat striatum” value is 1.4 ± 0.25 pmol/mg tissue, the “HVA in rat striatum” value turned out to be 2.28 ± 0.75 pmol/mg tissue and the “NE in rat striatum” value turned out to be 1.21 ± 0.4 pmol/mg tissue.

`CC(=O)N(O)CCCCCNC(=O)CCC(=O)N(O)CCCCCNC(=O)CCC(=O)N(O)CCCCCN` [desferrioxamine]: the “protection against the 6-OHDA-induced reduction in striatal DA content” value is 100% in data set [3] (13 ng i.c.v. prior to 6-OHDA (250 μg)) and about 60% in data set [3] (130 ng i.c.v. prior to 6-OHDA (250 μg)). Further, in data set [3] (desferrioxamine i.c.v. prior to 6-OHDA), the “DA release (HVA/DA ratio), in words” value is given as “normalization of DA release”. Further, the “dopaminergic-related behavioral responses (spontaneous movements in a novel environment, rearing), in words” value in data set [3] (desferrioxamine-pretreated rats, 6-OHDA) is “almost normal behavioral responses”. Further, the “protection against 6-OHDA-induced lesions of nigrostriatal dopamine neurons, in words” value in data set [3] (rats) is recorded as “protected”.

For the molecule `CC(=O)c1cc(CN2CCN(CCO)CC2)ccc1O` [Compound 5, 2-acetyl-4-[4-(2-hydroxyethyl)piperazin-1-yl-methyl]phenol], the melting point is 72 to 75 °C.

With `O=C(CCC(CN(CC(=O)OCc1ccccc1)CC(=O)OCc1ccccc1)N(CC(=O)OCc1ccccc1)CC(=O)OCc1ccccc1)NCCN1CCN(C(=O)OCc2ccccc2)CC1` (stereo not shown) [Compound 1, N-[2-(4-carbobenzoxypiperazin-1-yl)ethyl]-4,5-bis[bis(benzyloxycarbonylmethyl)amino]valeramide], the “reduction of iron-induced MDA formation” value in data set [1] was about 50%.

With `NCCc1cc(O)c(O)cc1O` [Compound 6-OHDA, 6-hydroxydopamine], in data set [3] (setting [8]), the “increase in DA release as indicated by the HVA/DA ratio” value is 2.5 fold, the “reduction in striatal tissue content of DOPAC” value is recorded as 79%, the “reduction in striatal tissue content of HVA” value was 70% and the “reduction in striatal tissue content of dopamine (DA)” value was 88%. Also, in data set [2] (250 μg 6-OHDA intraventricular, rats), the “decrease in striatal dopamine levels” value came out at 80%. In addition, the “(DOPAC + HAV)/DA (dopamine turnover)” value in data set [2] (setting [4]) turned out to be 0.202. For the same molecule, in data set [2] (setting [5]), the “5-HIAA in rat striatum” value worked out at 3.76 ± 0.20 pmol/mg tissue, the “5-HT in rat striatum” value is recorded as 4.00 ± 0.35 pmol/mg tissue, the “DA in rat striatum” value is listed as 19.93 ± 5.0^c pmol/mg tissue and the “DOPAC in rat striatum” value is 1.79 ± 0.25^a pmol/mg tissue. Further, in data set [2] (setting [5]), the “HVA in rat striatum” value is recorded as 2.24 ± 0.23 pmol/mg tissue and the “NE in rat striatum” value came out at 5.0 ± 0.1 pmol/mg tissue. In data set [2] (setting [6]), the “5-HIAA in rat striatum” value is 6.29 ± 0.65 pmol/mg tissue, the “5-HT in rat striatum” value is reported as 3.22 ± 0.42 pmol/mg tissue, the “(DOPAC + HAV)/DA (dopamine turnover)” value stood at 0.14 and the “DA in rat striatum” value is 12.93 ± 3.3^a pmol/mg tissue. Besides, in data set [2] (setting [6]), the “DOPAC in rat striatum” value was 0.76 ± 0.11^a pmol/mg tissue, the “HVA in rat striatum” value is given as 1.10 ± 0.21^a pmol/mg tissue and the “NE in rat striatum” value was 1.1 ± 0.1 pmol/mg tissue. Besides, in data set [2] (setting [7]), the “5-HIAA in rat striatum” value came to 1.57 ± 0.07 pmol/mg tissue, the “5-HT in rat striatum” value turned out to be 2.60 ± 0.15 pmol/mg tissue, the “(DOPAC + HAV)/DA (dopamine turnover)” value is 0.16 and the “DA in rat striatum” value is recorded as 9.69 ± 2.63^a pmol/mg tissue. In data set [2] (setting [7]), the “DOPAC in rat striatum” value is reported as 0.51 ± 0.11^A pmol/mg tissue, the “HVA in rat striatum” value is reported as 1.05 ± 0.19^A pmol/mg tissue and the “NE in rat striatum” value was found to be 1.22 ± 0.04 pmol/mg tissue.

A word on the melting point: it is the temperature, or range, at which the solid turns liquid.
